Experimental data taken from article PMC12116161, “An Elastase Inhibitor ShSPI from Centipede Attenuates Bleomycin-Induced Pulmonary Fibrosis” (Toxins, 2025).
Where a SMILES comes first, the peptide text is derived from it. Bridges are numbered along the chain shown (N, C = ends).

Tested on: ICR healthy mice
Assay: Single administration toxicity study: blood biochemistry and electrolytes
Type: in vivo
Conditions: single airway spray, day 14 post-dose, serum, automated biochemistry analyzer, mean ± s
Method: Specific pathogen-free (SIPF) grade ICR healthy mice (with an equal number of males and females, procured from Hunan Slaughter King Laboratory Animal Co., Changsha, China) were randomly divided into four experimental groups and received ShSPI via airway spray at doses of 0 mg/kg (control), 40 mg/kg, 80 mg/kg, or 160 mg/kg in a single administration. Following treatment, the mice were monitored for a 14-day observation period. On the fourteenth day, blood plasma samples were collected for precise measurement and analysis of hematological and biochemical parameters. The specific process is as follows.
On day 14 post-dose, approximately 1.7–2.0 mL of whole blood was collected for hematological and biochemical analyses. Hematological parameters were assessed using an automated hematology analyzer, while biochemical parameters were evaluated with an automated biochemistry analyzer. Prior to blood collection, all mice were fasted for at least 12 h. For hematological analysis, 200 μL of whole blood was immediately transferred into EDTA-containing tubes. For biochemical analysis, 1.5 mL of whole blood was placed into serum separator tubes without anticoagulant and centrifuged to isolate serum.

[1] = 40 mg/kg ShSPI, n = 6, * p < 0.05 vs blank control
[2] = 80 mg/kg ShSPI, n = 6, * p < 0.05 vs blank control

For `CC[C@H](C)[C@@H]1NC(=O)[C@H](C)NC(=O)[C@@H]2CCCN2C(=O)[C@@H]2CSSC[C@H](NC(=O)[C@H](CO)NC(=O)[C@H](CC(N)=O)NC(=O)[C@H](CO)NC(=O)[C@H](Cc3ccc(O)cc3)NC(=O)[C@H](CCSC)NC(=O)[C@H](CCCNC(=N)N)NC(=O)CNC(=O)[C@H](Cc3ccccc3)NC(=O)[C@H](CCC(=O)O)NC(=O)[C@H](CC(=O)O)NC(=O)[C@H](Cc3ccccc3)NC(=O)[C@H](C(C)C)NC(=O)[C@@H]3CCCN3C(=O)[C@H](CCC(N)=O)NC(=O)[C@H](Cc3ccc(O)cc3)NC1=O)C(=O)N[C@@H](CCC(=O)O)C(=O)N[C@@H](CCSC)C(=O)N[C@@H](CCC(N)=O)C(=O)N[C@@H](CCCNC(=N)N)C(=O)N[C@@H](C)C(=O)N[C@@H](CCCNC(=N)N)C(=O)N[C@H](C(=O)N[C@@H](CC(C)C)C(=O)N[C@@H](CCCNC(=N)N)C(=O)NCC(=O)O)CSSC[C@H](N)C(=O)N1CCC[C@H]1C(=O)N[C@@H](CCC(N)=O)C(=O)N[C@@H](C(C)C)C(=O)N2` [ShSPI] (H-CPQVCPAIYQPVFDEFGRMYSNSCEMQRARCLRG-OH; disulfide 1-31, 5-24; N-terminus and C-terminus assumed), the ALBII (40 mg/kg ShSPI, n = 6) was 29.13 ± 1.27 g/L, the ALP (40 mg/kg ShSPI, n = 6) was 85.25 ± 18.91 U/L and the ALT (40 mg/kg ShSPI, n = 6) was 44.95 ± 22.02 U/L. For the same molecule, the AST (40 mg/kg ShSPI, n = 6) was 97.20 ± 13.33 U/L, the CK (40 mg/kg ShSPI, n = 6) was 236.4 ± 108.76 U/L and the CREA-S (40 mg/kg ShSPI, n = 6) was 21.70 ± 4.99 µmol/L. The GLO2 (40 mg/kg ShSPI, n = 6) was 17.67 ± 0.80 g/L, the Glu-G (40 mg/kg ShSPI, n = 6) was 9.93 ± 1.48 mmol/L and the T-Bil-VII (40 mg/kg ShSPI, n = 6) was 1.73 ± 0.80 µmol/L. For the same molecule, the TC (40 mg/kg ShSPI, n = 6) was 2.09 ± 0.33 mmol/L, the TG (40 mg/kg ShSPI, n = 6) was 1.35 ± 0.50 mmol/L and the TPII (40 mg/kg ShSPI, n = 6) was 46.81 ± 1.48 g/L. The UREA (40 mg/kg ShSPI, n = 6) was 17.07 ± 3.07 mmol/L, the calcium binding (40 mg/kg ShSPI, n = 6) was 1.23 ± 0.011 mmol/L and the chloride ion (40 mg/kg ShSPI, n = 6) was 106.80 ± 1.14 mmol/L. It also gave a potassium ion (40 mg/kg ShSPI, n = 6) of 4.82 ± 0.27 mmol/L, a r-GT (40 mg/kg ShSPI, n = 6) of 0.38 ± 0.20 U/L and a sodium ion (40 mg/kg ShSPI, n = 6) of 152.39 ± 1.75 mmol/L. For the same molecule, the calcium ionomer [1] was 1.23 ± 0.01 * mmol/L, the total calcium [1] was 2.48 ± 0.02 * mmol/L and the ALBII (80 mg/kg ShSPI, n = 6) was 28.05 ± 1.53 g/L. For the same molecule, the ALP (80 mg/kg ShSPI, n = 6) was 94.75 ± 22.33 U/L, the ALT (80 mg/kg ShSPI, n = 6) was 38.58 ± 7.12 U/L and the AST (80 mg/kg ShSPI, n = 6) was 92.95 ± 20.45 U/L. For the same molecule, the CK (80 mg/kg ShSPI, n = 6) was 175.4 ± 69.9 U/L, the CREA-S (80 mg/kg ShSPI, n = 6) was 23.10 ± 2.24 µmol/L and the GLO2 (80 mg/kg ShSPI, n = 6) was 17.21 ± 0.82 g/L. The Glu-G (80 mg/kg ShSPI, n = 6) was 9.71 ± 1.69 mmol/L, the T-Bil-VII (80 mg/kg ShSPI, n = 6) was 1.47 ± 0.43 µmol/L and the TC (80 mg/kg ShSPI, n = 6) was 2.21 ± 0.61 mmol/L. It also gave a TG (80 mg/kg ShSPI, n = 6) of 1.21 ± 0.32 mmol/L, a TPII (80 mg/kg ShSPI, n = 6) of 45.26 ± 1.62 g/L and a UREA (80 mg/kg ShSPI, n = 6) of 14.79 ± 3.07 mmol/L. For the same molecule, the calcium binding (80 mg/kg ShSPI, n = 6) was 1.24 ± 0.05 mmol/L, the chloride ion (80 mg/kg ShSPI, n = 6) was 106.5 ± 1.26 mmol/L and the potassium ion (80 mg/kg ShSPI, n = 6) was 5.01 ± 0.46 mmol/L. For the same molecule, the r-GT (80 mg/kg ShSPI, n = 6) was 0.00 ± 1.01 U/L, the sodium ion (80 mg/kg ShSPI, n = 6) was 150.7 ± 1.89 mmol/L and the calcium ionomer [2] was 1.24 ± 0.05 * mmol/L. For the same molecule, the total calcium [2] was 2.49 ± 0.10 * mmol/L, the ALBII (160 mg/kg ShSPI, n = 6) was 30.1 ± 1.28 g/L and the ALP (160 mg/kg ShSPI, n = 6) was 98.6 ± 27.17 U/L. It also gave an ALT (160 mg/kg ShSPI, n = 6) of 39.80 ± 7.79 U/L, an AST (160 mg/kg ShSPI, n = 6) of 80.6 ± 16.79 U/L and a CK (160 mg/kg ShSPI, n = 6) of 156.4 ± 75.0 U/L. It also gave a CREA-S (160 mg/kg ShSPI, n = 6) of 19.1 ± 3.98 µmol/L, a GLO2 (160 mg/kg ShSPI, n = 6) of 18.0 ± 1.06 g/L and a Glu-G (160 mg/kg ShSPI, n = 6) of 9.24 ± 1.33 mmol/L. It also gave a TC (160 mg/kg ShSPI, n = 6) of 2.26 ± 0.33 mmol/L, a TG (160 mg/kg ShSPI, n = 6) of 1.23 ± 0.35 mmol/L and a TPII (160 mg/kg ShSPI, n = 6) of 48.2 ± 1.79 g/L. For the same molecule, the UREA (160 mg/kg ShSPI, n = 6) was 13.6 ± 4.00 mmol/L, the calcium binding (160 mg/kg ShSPI, n = 6) was 1.28 ± 0.03 mmol/L and the calcium ionomer (160 mg/kg ShSPI, n = 6) was 1.28 ± 0.03 mmol/L. For the same molecule, the chloride ion (160 mg/kg ShSPI, n = 6) was 106.5 ± 1.44 mmol/L, the potassium ion (160 mg/kg ShSPI, n = 6) was 4.68 ± 0.30 mmol/L and the r-GT (160 mg/kg ShSPI, n = 6) was 0.31 ± 0.35 U/L. For the same molecule, the sodium ion (160 mg/kg ShSPI, n = 6) was 152.9 ± 1.60 mmol/L and the total calcium (160 mg/kg ShSPI, n = 6, * p < 0.05 vs blank control) was 2.5 ± 0.06 * mmol/L.
